Source: PubChem BioAssay AID248 (DTP/NCI, 2004)
“And” between values parts separate entries of the source, which are not always exact repeats. Equal values may be shown once. Inconclusive results and toxic doses are left out. Cut-off read from the data, not from the text of the source: active = T/C of 150% or more; inactive = T/C below 125%.

Tested on: L1210 leukemia ip in BDF1 mice, survival T/C
Experiment: NCI In Vivo Anticancer Drug Screen. Data for tumor model L1210 Leukemia (intraperitoneal) in B6D2F1 (BDF1) mice
Conditions: endpoint: mean survival time, higher = longer survival
How it was run: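 Each compound was tested against a transplantable tumor grown in mice. The endpoint was survival, with treated animals benchmarked against vehicle controls as a simple ratio.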

[1] = dose: 50.0 mg/kg/injection, schedule: Q01DX001 (ip), vehicle: Klucel (hydroxypropylcellulose) (HPC)
[2] = dose: 100.0 mg/kg/injection, schedule: Q01DX001 (ip), vehicle: Klucel (hydroxypropylcellulose) (HPC)
[3] = dose: 100.0 mg/kg/injection, schedule: Q04DX003 (ip), vehicle: saline with Tween-80
[4] = dose: 200.0 mg/kg/injection, schedule: Q04DX003 (ip), vehicle: saline with Tween-80
[5] = dose: 400.0 mg/kg/injection, schedule: Q04DX003 (ip), vehicle: saline with Tween-80

Measured: T/C

O=c1[nH]c(=O)n(C2CC(O)C(CO)O2)cc1Br (stereo unspecified)
inactive: dose: 50.0 mg/kg/injection, schedule: Q02DX Z (ip), vehicle: carboxymethylcellulose (CMC) 108 % of control | dose: 100.0 mg/kg/injection, schedule: Q02DX Z (ip), vehicle: carboxymethylcellulose (CMC) 107 % of control | dose: 150.0 mg/kg/injection, schedule: Q02DX Z (ip), vehicle: carboxymethylcellulose (CMC) 109 % of control | dose: 200.0 mg/kg/injection, schedule: Q02DX Z (ip), vehicle: carboxymethylcellulose (CMC) 113 % of control | dose: 250.0 mg/kg/injection, schedule: Q02DX Z (ip), vehicle: carboxymethylcellulose (CMC) 109 % of control | dose: 300.0 mg/kg/injection, schedule: Q02DX Z (ip), vehicle: carboxymethylcellulose (CMC) 113 % of control | dose: 400.0 mg/kg/injection, schedule: Q02DX Z (ip), vehicle: carboxymethylcellulose (CMC) 110 % of control | dose: 500.0 mg/kg/injection, schedule: Q02DX Z (ip), vehicle: carboxymethylcellulose (CMC) 114 % of control | dose: 600.0 mg/kg/injection, schedule: Q01DX009 (ip), vehicle: carboxymethylcellulose (CMC) 123 % of control | dose: 600.0 mg/kg/injection, schedule: Q02DX Z (ip), vehicle: carboxymethylcellulose (CMC) 122 % of control | dose: 800.0 mg/kg/injection, schedule: Q01DX Z (ip), vehicle: carboxymethylcellulose (CMC) 122 % of control | dose: 1000.0 mg/kg/injection, schedule: Q01DX Z (ip), vehicle: carboxymethylcellulose (CMC) 113 % of control | dose: 1800.0 mg/kg/injection, schedule: Q01DX009 (ip), vehicle: carboxymethylcellulose (CMC) 102 % of control

CCCCCCCCNCCCCCCCC
inactive: dose: 4.62 mg/kg/injection, schedule: Q01DX009 (ip), vehicle: gum acacia 101 % of control | dose: 5.0 mg/kg/injection, schedule: Q01DX001 (ip), vehicle: other 95 % of control | dose: 9.25 mg/kg/injection, schedule: Q01DX009 (ip), vehicle: gum acacia 94 % of control | dose: 10.0 mg/kg/injection, schedule: Q01DX001 (ip), vehicle: other 95 % of control | dose: 18.5 mg/kg/injection, schedule: Q01DX009 (ip), vehicle: gum acacia 95 % of control | dose: 20.0 mg/kg/injection, schedule: Q01DX001 (ip), vehicle: other 90 % of control | dose: 37.0 mg/kg/injection, schedule: Q01DX009 (ip), vehicle: gum acacia 97 % of control | dose: 40.0 mg/kg/injection, schedule: Q01DX001 (ip), vehicle: other 93 % of control | dose: 80.0 mg/kg/injection, schedule: Q01DX001 (ip), vehicle: other 90 % of control | dose: 100.0 mg/kg/injection, schedule: Q01DX001 (ip), vehicle: other 100 % of control

NC1(c2ccccc2)CC1
inactive: dose: 25.0 mg/kg/injection, schedule: Q04DX002 (ip), vehicle: Klucel (hydroxypropylcellulose) (HPC) 90 % of control | dose: 50.0 mg/kg/injection, schedule: Q04DX002 (ip), vehicle: Klucel (hydroxypropylcellulose) (HPC) 93 % of control | dose: 100.0 mg/kg/injection, schedule: Q04DX002 (ip), vehicle: Klucel (hydroxypropylcellulose) (HPC) 95 % of control and 98 % of control

O=C(CNCc1ccccc1)c1ccc(Cl)cc1
inactive: [1] 93 % of control | [2] 96 % of control | dose: 200.0 mg/kg/injection, schedule: Q01DX001 (ip), vehicle: Klucel (hydroxypropylcellulose) (HPC) 93 % of control | dose: 400.0 mg/kg/injection, schedule: Q01DX001 (ip), vehicle: Klucel (hydroxypropylcellulose) (HPC) 93 % of control

Cc1cc(S(=O)(=O)c2cc(C)c(O)c(C(N)=O)c2)cc(C(N)=O)c1O
inactive: dose: 100.0 mg/kg/injection, schedule: Q04DX002 (ip), vehicle: carboxymethylcellulose (CMC) 95 % of control | dose: 200.0 mg/kg/injection, schedule: Q04DX002 (ip), vehicle: carboxymethylcellulose (CMC) 103 % of control | dose: 400.0 mg/kg/injection, schedule: Q04DX002 (ip), vehicle: carboxymethylcellulose (CMC) 98 % of control

Cc1ccnc(NS(=O)(=O)c2ccc(N)cc2)n1
inactive: dose: 100.0 mg/kg/injection, schedule: Q04DX002 (ip), vehicle: saline with Tween-80 93 % of control | dose: 200.0 mg/kg/injection, schedule: Q04DX002 (ip), vehicle: saline with Tween-80 101 % of control | dose: 400.0 mg/kg/injection, schedule: Q04DX002 (ip), vehicle: saline with Tween-80 93 % of control

CCCCCCCC1N(C)CCCN1C
inactive: dose: 25.0 mg/kg/injection, schedule: Q01DX009 (ip), vehicle: saline with Tween-80 88 % of control | dose: 25.0 mg/kg/injection, schedule: Q04DX003 (ip), vehicle: saline with Tween-80 93 % of control | dose: 50.0 mg/kg/injection, schedule: Q01DX009 (ip), vehicle: saline with Tween-80 95 % of control | dose: 50.0 mg/kg/injection, schedule: Q04DX003 (ip), vehicle: saline with Tween-80 96 % of control | [3] 95 % of control and 92 % of control

CCN(CC)c1cccc(N)c1
inactive: dose: 25.0 mg/kg/injection, schedule: Q01DX009 (sc), vehicle: olive oil, sesame oil, peanut oil 100 % of control | dose: 50.0 mg/kg/injection, schedule: Q01DX009 (sc), vehicle: olive oil, sesame oil, peanut oil 104 % of control | dose: 100.0 mg/kg/injection, schedule: Q01DX009 (sc), vehicle: olive oil, sesame oil, peanut oil 114 % of control | dose: 100.0 mg/kg/injection, schedule: Q04DX003 (sc), vehicle: olive oil, sesame oil, peanut oil 110 % of control

CCOC(=O)CSc1ccc2c3c(cccc13)C(=O)OC2=O
inactive: dose: 20.0 mg/kg/injection, schedule: Q01DX009 (ip), vehicle: other 104 % of control | dose: 40.0 mg/kg/injection, schedule: Q01DX009 (ip), vehicle: other 98 % of control | dose: 80.0 mg/kg/injection, schedule: Q01DX009 (ip), vehicle: other 91 % of control | dose: 87.5 mg/kg/injection, schedule: Q01DX009 (ip), vehicle: other 92 % of control

CC12CCC3c4ccc(Oc5ccccc5[N+](=O)[O-])cc4CCC3C1CCC2=O (stereo unspecified)
inactive: dose: 100.0 mg/kg/injection, schedule: Q01DX001 (sc), vehicle: steriod suspending solution 100 % of control | dose: 200.0 mg/kg/injection, schedule: Q01DX001 (sc), vehicle: steriod suspending solution 103 % of control | dose: 400.0 mg/kg/injection, schedule: Q01DX001 (sc), vehicle: steriod suspending solution 103 % of control

C/C(=C\CN1C(=O)c2ccccc2C1=O)CCC(=O)O
inactive: dose: 25.0 mg/kg/injection, schedule: Q01DX009 (ip), vehicle: saline 109 % of control | dose: 50.0 mg/kg/injection, schedule: Q01DX009 (ip), vehicle: saline 101 % of control | dose: 100.0 mg/kg/injection, schedule: Q01DX009 (ip), vehicle: saline 109 % of control | dose: 200.0 mg/kg/injection, schedule: Q01DX009 (ip), vehicle: saline 111 % of control | dose: 400.0 mg/kg/injection, schedule: Q01DX009 (ip), vehicle: saline 106 % of control

CCOC(=O)CC(=O)N/N=C(/C)C(=O)OCC
inactive: dose: 100.0 mg/kg/injection, schedule: Q01DX009 (ip), vehicle: saline with Tween-80 94 % of control | [3] 97 % of control | dose: 200.0 mg/kg/injection, schedule: Q01DX009 (ip), vehicle: saline with Tween-80 87 % of control | [4] 105 % of control | dose: 400.0 mg/kg/injection, schedule: Q01DX009 (ip), vehicle: saline with Tween-80 97 % of control | [5] 105 % of control

Cc1c(CC(=O)O)c(=O)n(-c2ccccc2)n1C
inactive: dose: 75.0 mg/kg/injection, schedule: Q04DX003 (ip), vehicle: Klucel (hydroxypropylcellulose) (HPC) 105 % of control | dose: 150.0 mg/kg/injection, schedule: Q04DX003 (ip), vehicle: Klucel (hydroxypropylcellulose) (HPC) 101 % of control | dose: 300.0 mg/kg/injection, schedule: Q04DX003 (ip), vehicle: Klucel (hydroxypropylcellulose) (HPC) 104 % of control

CCOCC(=O)C(C#N)c1ccc(Cl)c(Cl)c1 (stereo unspecified)
inactive: dose: 100.0 mg/kg/injection, schedule: Q01DX001 (ip), vehicle: carboxymethylcellulose (CMC) 94 % of control

Nc1ccc(Cc2[nH]c(=O)[nH]c(=O)c2Br)cc1[N+](=O)[O-]
inactive: dose: 25.0 mg/kg/injection, schedule: Q01DX001 (ip), vehicle: Klucel (hydroxypropylcellulose) (HPC) 103 % of control | [1] 95 % of control | [2] 93 % of control

CCOC(=O)C(=O)c1c[nH]c2ccccc12
inactive: [3] 97 % of control | [4] 97 % of control | [5] 95 % of control

CC1C(O)C(O)C(C(=O)O)ON1C(=O)c1ccccc1 (stereo unspecified)
inactive: dose: 100.0 mg/kg/injection, schedule: Q04DX002 (ip), vehicle: saline 100 % of control | dose: 200.0 mg/kg/injection, schedule: Q04DX002 (ip), vehicle: saline 100 % of control | dose: 400.0 mg/kg/injection, schedule: Q04DX002 (ip), vehicle: saline 110 % of control
